Source: patent US8013016B2, “Use of acetyl L-carnitine for the treatment of fibromyalgic syndrome” (Sigma-Tau Industrie Farmaceutiche Riunite S.p.A., priority 2004, dated 2011)

What was measured:
[1] = test system: patients with fibromyalgic syndrome; assay: Same clinical trial: secondary clinical parameters assessed with visual analogue scales; type: in vivo, human; settings: end of the treatment period (10 weeks), 1,500 mg/day; P<0.05
Description: (§1) A multicentre, randomized, placebo-controlled, double-blind clinical trial was conducted, the aim of which was to evaluate the efficacy of acetyl L-carnitine in patients with fibromyalgic syndrome.
Also monitored were additional secondary parameters which will be discussed later.
Acetyl L-carnitine was administered for a period of 10 consecutive weeks at a dose of 1,500 mg/day.
During the first two weeks it was administered at the dose of 500 mg by the intramuscular route (i.m.) and 500 mg (twice daily) by the oral route (os).
Over the following eight weeks acetyl L-carnitine was administered orally at doses of 500 mg three times daily.

[2] = test system: patients with fibromyalgic syndrome; assay: Multicentre, randomized, placebo-controlled, double-blind clinical trial: evoked pain at ACR tender points (Pressure Threshold Meter algometer); type: in vivo, human; settings: for Mean variation compared to baseline (evoked pain at ACR tender points, algometer): N = 42
Description: as §1
For the evaluation of the efficacy of the compound according to the present invention evoked pain was monitored (as measured with the “Pressure Threshold Meter” algometer) in the osteoarticular regions indicated by “The American College of Rheumatology” (ACR) as being “tender points” characteristic of fibromyalgia syndrome. [WOLFE F, SMYTHE H A, YUNUS M B, et al. The American College of Rheumatology Criteria for the classification of fibromyalgia: report of the multicenter criteria committee; Arthritis Rheum 1990; 33(2): 160-172].
The patients included in the trial were patients of either gender aged from 25 to 65 years, who matched up to the above-mentioned American College of Rheumatology diagnostic criteria for fibromyalgia syndrome.
The diagnostic criteria for fibromyalgic syndrome had to be confirmed by the presence of all four of the following conditions: • bilateral diffuse pain in the axial skeleton; • bilateral diffuse pain in the upper limbs; • bilateral diffuse pain in the lower limbs; • pain located in 11 or more of the 18 anatomical regions listed in the map of tender points (ACR tender points) evoked with a standardised pressure manoeuvre.
Patients with any one of the following conditions were not recruited into the trial: • presence of infections or inflammatory processes affecting the osteoarticular or tegumental apparatus; • history or presence of clinically important osteoarticular disease capable of confounding the evaluation of the study treatments (e.g. history of trauma); • previous orthopaedic surgery, spondyloarthrosis, connectivitis etc.; • clinical or laboratory evidence of dysthyroidism; • presence of systemic diseases (diabetes, kidney, cardiovascular and respiratory disease, psychiatric illness) or major pathological conditions capable of interfering with the evaluation of the study treatments; • continuous use of anti-inflammatory steroids during the last 3 months prior to the trial; • recent initiation of oestrogen-progestogen hormone replacement therapy (<1 year); • therapy with antidepressant drugs during the last 6 months prior to the trial; • therapy with non-steroidal anti-inflammatory drugs during the last 3 days prior to the trial; • therapy with analgesic drugs during the last 7 days prior to the trial; • participation in a clinical trial during the previous 6 months; • pregnant women, breastfeeding women, or women of childbearing age not adopting an adequate contraceptive method.
Acetyl L-carnitine was administered for a period of 10 consecutive weeks at a dose of 1,500 mg/day. […]

SMILES: CC(=O)O[C@H](CC(=O)[O-])C[N+](C)(C)C [Acetyl L-carnitine, acetyl L-carnitine]
- General well-being (visual analogue scale) [1]: statistically significant improvements
- Mental health (visual analogue scale) [1]: statistically significant improvements
- Physical health in general (visual analogue scale) [1]: statistically significant improvements
- Improvement in pain evoked in the osteoarticular regions (ACR tender points) as compared to the control group ([2]; end of therapy (10 weeks), 1,500 mg/day, vs placebo): statistically significant improvement
- Mean variation compared to baseline (evoked pain at ACR tender points, algometer) ([2]; visit 2 weeks, 1,500 mg/day (500 mg i.m. + 500 mg twice daily os), placebo 0.16 (0.39)): 0.24 (0.64)
- Mean variation compared to baseline (evoked pain at ACR tender points, algometer) ([2]; visit 6 weeks, 1,500 mg/day (first 2 weeks i.m. + os, then 500 mg three times daily os), placebo 0.45 (0.57)): 0.55 (0.64)
- Mean variation compared to baseline (evoked pain at ACR tender points, algometer) ([2]; visit 10 weeks (end of therapy), 1,500 mg/day, placebo 0.34 (0.66), P<0.05 Student's t-test): 0.71 (0.71)
